Source: article PMC11406516, “The Tuberculosis Drug Candidate SQ109 and Its Analogs Have Multistage Activity against Plasmodium falciparum” (ACS Infectious Diseases, 2024)
≈ marks a conversion by molar mass, not a printed value. Read-outs that look alike come from different tables or passages of the source. Marks after values point to notes of the source that are not given here.

Columns and labels:
[1] = system: PfNF54 LGc (stage IV/V gametocytes); experiment: PrestoBlue late-stage gametocyte viability assay; type: cell-based, Plasmodium falciparum; settings: for IC50: Plasmodium falciparum, stage IV/V gametocytes, 48 h drug pressure, read-out: PfNF54 LGc IC50
Method: Gametocytogenesis was induced on highly synchronized (>95%) asexual ring-stage parasites from PfNF54 at 0.5% parasitemia and 6% hematocrit and thereafter maintained in glucose-deprived media as previously described.[29],[15] After 3 days, the hematocrit was decreased to 4%. Parasites were maintained in complete culture media supplemented with 50 mM N-acetyl-glucosamine 5–10 days post induction to inhibit proliferation of residual asexual blood stages. Gametocyte progression and morphology was also monitored microscopically using Giemsa-stained thin smears.
activity against the sexual stages of P. falciparum was evaluated using the PrestoBlue fluorescence assay as previously described.[4] Activity was measured on PfNF54 stage IV/V gametocytes (2% gametocytemia, 5% hematocrit) previously seeded with compounds (in non-lethal DMSO) for 48 h drug pressure, after which PrestoBlue reagent was added and incubated for 2 h. Fluorescence was detected in the supernatant at 612 nm. Dihydroartemisinin (DHA) was used as a positive drug control.

[2] = system: African field isolate SB05; experiment: Ex vivo activity on clinical isolate SB05; type: cell-based, Plasmodium falciparum; settings: for IC50: Plasmodium falciparum, read-out: IC50 SB05
Excerpt: (§1) Since SB03/05 are both multiclonal,[27] this warrants further investigation into the activity of this series toward clinical gametocytes.
(§2) (A) Dose–response analysis of SQ109 on clinical isolates SB03 and SB05 in comparison to lab-adapted NF54 P. falciparum parasites. Data are from at least 2 independent biological repeats, mean ± SE indicated, * P < 0.05 is indicated. (B) IC50 for SQ109 analogs 13 and 19 against a contemporary African field isolate SB05. […] TEXT PRINTED IN THE PICTURE: (A) SQ109/1: IC50 (μM), NF54: 1.58 ± 0.20; IC50 (μM), SB03: 0.63 ± 0.01; IC50 (μM), SB05: 0.90 DOUBTS OF THE COPYIST ABOUT THIS PICTURE: Panel A: the three IC50 values are matched to NF54, SB03 and SB05 only by line style (black dashed, grey solid, grey dashed), not by a printed label beside the numbers.

[3] = in vitro; type: in vitro ADME; settings: microsomes
Method: The microsomal stability assay used a single-point assay design (Di et al., 2004). Briefly, the compounds were incubated at 1 μM in human, rat, and mouse liver microsomes (0.4 mg/mL) for 30 min at 37 °C. Reactions were quenched by adding ice-cold acetonitrile containing internal standard (carbamazepine, 0.0236 μg/mL). The samples were then centrifuged, and the samples were analyzed by liquid chromatography with tandem mass spectrometry (LC-MS/MS) (Agilent Rapid Resolution HPLC, AB SCIEX 4500 MS) for the disappearance of the parent compound. Half-life, clearance and hepatic […] ratios were determined using standard equations.

[4] = system: PfDd2 parasites; experiment: Asexual blood stage activity, chloroquine-resistant Dd2; type: cell-based; settings: Plasmodium falciparum, DD2, read-out: Pf ABS IC50 (Dd2)
Excerpt: This strain is highly resistant to chloroquine and other antimalarials and is associated with increased export of e.g., chloroquine from the digestive vacuole.[23] This phenotype was also replicated in PfDd2 parasites, also resistant to chloroquine (among other antimalarials), with 4 and 5 losing activity but 1 similarly active (Table 1). These aromatic compounds may therefore be subject to resistance mechanisms similar to those found with chloroquine.

[5] = system: PfNF54 ABS; parameters: method as in Stampolaki et al.[5]; settings: drug-sensitive NF54; ref Stampolaki et al.[5]; read-out: Pf ABS IC50 NF54; cited from earlier work
[6] = system: male gametes (PfNF54); parameters: method as in Reader et al.[4]; settings: ref Reader et al.[4]; cited from earlier work
[7] = system: PfK1; experiment: SYBR Green I proliferation assay, asexual blood stages, multidrug-resistant K1; settings: for IC50: Plasmodium falciparum, K1, read-out: Pf ABS IC50 K1; for fold higher IC50 against PfK1: PfK1 vs NF54
Method: (§3) P. falciparum asexual parasites were cultured from drug-sensitive NF54 (PfNF54) and multidrug resistant strains PfK1. Parasites were maintained in human erythrocytes (O+, suspended at 5% hematocrit) in RPMI-1640 culture medium (23.81 mM sodium bicarbonate, 0.024 mg/mL gentamycin, 25 mM HEPES pH 7.5, 0.2% D-glucose, 0.2 mM hypoxanthine and Albumax II) under hypoxic conditions (5% CO2, 5% O2 and 90% N2) with moderate shaking (60 rpm) at 37 °C. Cultures were synchronized to >95% in the ring stage with 5% (w/v) D-sorbitol treatment.[28]
(§4) Activity against the asexual stage of P. falciparum was evaluated using the SYBR Green I-based fluorescence assay as previously described.[4],[16] Cellular proliferation was measured on synchronized in vitro PfNF54 ring-stage parasites (1% parasitemia, 2% hematocrit), following drug pressure for 96 h. Chloroquine was used as the positive drug control for complete inhibition of parasite proliferation.

[8] = system: HepG2 cells; experiment: HepG2 cytotoxicity, LDH release assay; settings: Homo sapiens, HepG2, 24 h, read-out: HepG2 EC50
Method: (§5) Furthermore, compounds were evaluated against late (stage IV/V) gametocytes from PfNF54 (PfNF54 LGc), with viability detected with PrestoBlue,[15] and orthogonally evaluated for toxicity against a human hepatocellular carcinoma line, HepG2.[16]
(§6) Human hepatocellular liver carcinoma cells (HepG2) were cultivated in vitro in Dulbecco’s Modified Eagle’s Medium (DMEM) supplemented with 10% (v/v) heat inactivated fetal bovine serum and 1% (v/v) penicillin/streptomycin.[14] Cells were detached with trypsin treatment at 80% confluency and were seeded in 96-well plates to adhere for 24 h under 5% CO2, humid (95%) conditions. Cells were subsequently exposed to drug pressure for 24 h and cytotoxicity was then determined using the lactate dehydrogenase (LDH) release assay through the colorimetric detection at 450 nm, as previously outlined.[4],[16]

[9] = system: immature-stage gametocytes (IGc, stage II/III); experiment: Immature-stage gametocyte activity; type: cell-based; settings: Plasmodium falciparum, 48 h drug pressure
Method: Figure 1 SQ109 is a gametocyte-targeting compound. (A) IC50 for parent compound SQ109/1 on asexual parasites (ABS), immature-stage gametocytes (IGc, stage II/III), or late-stage gametocytes (LGc, stage IV/V), under 48 h drug pressure. IC50 ABS: 1.58 ± 0.2 μM; IC50 IGc: 0.38 ± 0.10 μM; IC50 LGc: 0.14 ± 0.03 μM; ** P < 0.01 indicates IGc and LGc vs ABS. (B) Chemical structure and summary of the designed structure–activity relationships (SAR-1, SAR-2 and SAR-3) around SQ109/1. Data are from >2 independent biological repeats, mean ± SE indicated, unpaired Student’s t-test applied.

[10] = system: female gametes; parameters: method as in Reader et al.[4]; settings: ref Reader et al.[4]; cited from earlier work
[11] = system: oocyst formation; settings: cited from earlier work
[12] = system: clinical isolate SB03; experiment: Ex vivo activity on clinical isolate SB03; type: cell-based; settings: Plasmodium falciparum, read-out: IC50 SB03
Excerpt: as §1, §2

[13] = system: male gametes (PfNF54); experiment: Male gamete exflagellation inhibition assay (EIA); type: cell-based; settings: Plasmodium falciparum; 2 μM, 48 h; read-out: male gamete inhibition %
Method: The EIA was performed using video microscopy by capturing the movement of exflagellation centers over time as previously described.[4],[30] Mature PfNF54 stage V gametocytes (>95%;) were treated with 2 μM of drug for 48 h before the activation of exflagellation, without removing drug pressure. Movement was semi-automatically quantified from 15 videos of 8–10 s each between 15 and 22.5 min after incubation. Each video was analyzed using ICY-bio image analysis software.

[14] = system: female gametes; experiment: Female gamete inhibition assay; type: cell-based, Plasmodium falciparum; parameters: concentration or dose not given beside the values
Method: Similarly, female gametes were activated as described previously.[31] Monoclonal anti-Pfs antibody conjugated to FITC was used to detect female gametes. Image acquisition was performed using a Zeiss Axio Lab.A1 epifluorescence microscope with a 100/1.4 numerical aperture (NA) oil immersion. Thirty images were captured per sample and analyzed manually.

[15] = physchem; type: physicochemical; settings: 37 °C, pH 6.5, aqueous buffer, thermodynamic from solid
Method: The stock solutions (10^–2 M) of the assayed compounds were diluted to decreased molarity, from 300 to 0.1 μM, in 384 well transparent plate (Greiner 781801) with 1% DMSO:99% PBS buffer. Then, they were incubated at 37 °C and the light scattering was measured after 2 h in a NEPHELOstar Plus (BMG LABTECH). The results were adjusted to a segmented regression to obtain the maximum concentration in which compounds are soluble.
The solubility of each product was evaluated using an HPLC Agilent 1100 with a DAD detector. The samples were injected in an Agilent Poroshell 120 EC-C18, 2.7 μm, 50 mm × 4.6 mm column at 40 °C and 0.6 mL/min flow. The mobile phase was a mixture of A = water with 0.05% formic acid and B = acetonitrile with 0.05% formic acid. The procedure followed was from 95% A–5% B to 100% B in 3 min, 100% B in 3 min, from 100% B to 95% A–5% B in 1 min, 95% A–5% B in 3 min; the injection volume was set at 75 μL. […] The samples remained at these conditions between 12–24 h. Then, the samples were filtered through a 0.45 μm PVDF filter and either directly analyzed or diluted before analyzing. The obtained area under the curve was compared with the one from the standard solution.

[16] = system: oocyst formation; experiment: Standard membrane feeding assay (SMFA), oocyst formation in Anopheles coluzzii; type: in vivo; settings: Plasmodium falciparum, 48 h drug treatment at 2 μM, single biological repeat
Method: Transmission-blocking activity was confirmed in the standard membrane feeding assay (SMFA), by determining transmission-reducing activity (TRA; reduction in oocyst counts) and transmission-blocking activity (TBA, reduction in oocyst prevalence), 8–10 days after feeding female mosquitoes on gametocyte-infected blood, treated with selected compounds (at 2 μM).
SMFA was performed using glass feeders as is outlined.[4],[16] Once again, mature stage V gametocytes (>95%) were treated with 2 μM of each compound for 48 h prior to feeding. Anopheles coluzzii females were allowed to feed on gametocyte cultures (1.5–2.5% gametocytemia, 50% hematocrit in A+ male serum with fresh erythrocytes) in the dark for 40 min. All unfed or partially fed mosquitoes were removed, and remaining females housed for 8–10 days. Mosquitoes were dissected to remove midguts, and oocysts counted under bright field illumination at ×20–×40 magnification. The percentage of block in transmission (transmission-blocking activity; TBA) and the percentage of reduction in the number of oocysts (transmission-reducing activity; TRA) were calculated after normalizing to the control untreated sample.

[17] = system: HepG2 cells; parameters: method as in Stampolaki et al.[5]; settings: compound at 20 μM; ref Stampolaki et al.[5]; cited from earlier work
[18] = system: PfNF54 ABS; experiment: SYBR Green I proliferation assay, asexual blood stages, drug-sensitive NF54; settings: for IC50: Plasmodium falciparum, NF54, 96 h, read-out: Pf ABS IC50 NF54
Method: as §3, §4

[19] = system: HepG2 cells
Method: as §5, §6

[20] = 48 h drug treatment at 2 μM, ref Reader et al.[4]
[21] = read-out: oocyst formation (% inhibition) TBA
[22] = read-out: oocyst formation (% inhibition) TRA

SMILES	IC50 [1]	IC50 [2]	microsomal CLint at 1 µM ([3]; human)	microsomal CLint at 1 µM ([3]; mouse)	microsomal CLint at 1 µM ([3]; rat)	IC50 [4]	IC50 [5]	IC50 [7]	EC50 [8]	inhibition at 2 µM [13]	female gamete inhibition % [14]	fold higher IC50 against PfK1 [7]	solubility [15]	inhibition at 2 µM [16, 21]	HepG2 % viability [17]	inhibition at 2 µM [16, 22]	IC50 [18]	other results
CC(C)=CCC/C(C)=C/CNCCNC1C2CC3CC(C2)CC1C3 (stereo not drawn) [Compound 1, N-geranyl-N′-(2-adamantyl)ethane-1,2-diamine, reference compound]	0.14 ± 0.03 µM	0.9 µM	442 µL/min/mg	410 µL/min/mg	385 µL/min/mg	1.44 µM	1.58 ± 0.2 µM	3.48 ± 0.24 µM	9.21 ± 1.99 µM									selectivity toward LGc compared to ABS ([1]; LGc IC50 vs ABS IC50): > 10 fold; shift in IC50, clinical isolates vs NF54 ([2]; contemporary African clinical isolates ex vivo): no significant shift; male gamete inhibition % [6]: 72.98 ± 5.97 ^c %; IC50 [9]: 0.38 µM; female gamete inhibition % [10]: 51.74 ± 5.40 ^c %; oocyst formation (% inhibition) TBA [11, 20]: 36.0 ± 10.6 ^c %; oocyst formation (% inhibition) TRA [11, 20]: 76.0 ± 4.75 ^c %; transmission-reducing activity [11]: 80%; IC50 [12]: 0.63 ± 0.01 µM
CC(C)=CCC/C(C)=C/CNCCNC1(Cc2ccccc2)C2CC3CC(C2)CC1C3 (stereo not drawn) [Compound 4]	0.16 ± 0.02 µM					8.11 µM	0.32 ± 0.03 µM	> 5 µM		43.9 ± 10.6%	74.48 ± 2.26%	16 ×	13.9 µM (≈ 5.85 µg/mL)	26%	100%^c			
CC(C)=CCC/C(C)=C/CNCCNC1(c2ccccc2)C2CC3CC(C2)CC1C3 (stereo not drawn) [Compound 5]	0.21 ± 0.02 µM		400 µL/min/mg	343 µL/min/mg	514 µL/min/mg	5.66 µM	0.42 ± 0.09 µM	5.99 ± 0.63 µM		48 ± 24.8%	61.03 ± 14.35%	14 ×	30 µM (≈ 12.2 µg/mL)	63%	100%^c	38%		
CC(C)=CCC/C(C)=C/CNCCCNC1C2CC3CC(C2)CC1C3 (stereo not drawn) [Compound 13]	0.12 ± 0.03 µM	0.49 ± 0.09 µM						1.05 ± 0.09 µM	11.8 ± 0.83 µM	90.9 ± 9.09%	87.02 ± 3.68%			64%		70%	0.98 ± 0.08 µM	fold improvement in gametocyte activity compared to 1 ([1]; PfNF54 LGc): 1.2 fold; fold improvement in ABS activity compared to 1 ([18]; PfNF54 ABS): 1.6 fold
CC(C)CCCC(C)CCNCCNC1C2CC3CC(C2)CC1C3 (stereo not drawn) [Compound 19]	0.3 ± 0.03 µM	0.95 ± 0.31 µM						0.11 ± 0.01 µM	3.5 ± 0.09 µM	95.5 ± 4.55%	86.30 ± 2.58%			36%		47%	0.2 µM	cytotoxicity to HepG2 cells (in words) [19]: moderately cytotoxic
